Experimental data reported in patent US6358736B1, “Method for increasing the antigen presenting ability of leukemia cells” (The United States of America as represented by the …, priority 1995, dated 2002).
Entries after “also recorded” stand apart in the source; their conditions may differ.

How the values were obtained:
[1] = test system: monocytes; assay: Calcium-chelation luminescence spectrophotometry of intracellular calcium flux; type: cell-based, human; settings: indol-loaded monocytes; calcium ionophore 180-750 ng/ml
Protocol: Calcium-chelation luminescence spectrophotometry was utilized to measure intracellular calcium fluxes in monocytes. Monoytes were incubated with 5 uM/ml indol, a calcium chelating agent which emits fluorescence at different wavelengths (405 or 480 nm) depending on whether or not it is bound to cycloplasmic calcium. Increased calcium mobilization causes relative shifts in emission from one wavelength to the other. After 30 minute incubation with indol, monocytes were washed, pulsed with a variety of agents such as calcium ionophore, virus, f-MET-LEU-PHE, or LPS. To measure calcium fluxes at subsequent time intervals, cells were stimulated with a 355 nm wavelength beam, and fluorescence emission measured at 405 and 480 nm.

[2] = test system: human peripheral blood monocytes; assay: FACS analysis of cell surface markers on cultured peripheral blood monocytes; type: cell-based
[3] = test system: WEHI-3; assay: Costimulatory molecule expression on mouse myeloid leukemia line; type: cell-based; settings: following calcium mobilization
Description: Myeloid leukemia cell lines display marked upregulation of molecules linked to antigen-presentation and acquire increased T cell sensitizing capacity following calcium mobilization with either calcium ionophore or thapsigargin.

[4] = test system: HL-60 cells; assay: FACS analysis of cell surface markers on HL-60 cells; type: cell-based, human; settings: optimal doses, within 20 hours
[5] = test system: HL-60 cells; assay: as above; type: cell-based, human; settings: 24 hours
Protocol: Calcium was removed from cultured cells by two methods.
The second method involved washing the cells extensively in calcium-free RPMI medium, and culturing them in the same calcium-free medium supplemented with serum that had been dialyzed against calcium-free phosphate-buffered saline.
The calmodulin kinase inhibitors KN-62 (20 uM) or KT-5926 (1 uM) was added to HL-60 cells in the presence of 188 ng/ml A23187. Twenty four hours later the level of CD80 was analyzed.
Thapsigargin was added to cultured human peripheral blood monocytes and HL-60 cells in concentrations ranging from 0 to 1000 nM. Cells were harvested 24 hours later and evaluated for the acquisition of ADC immunophenotypic characteristics by FACS analysis.
Cells were harvested after three days, irradiated (3000R), then FACS analyzed or cocultured in graded numbers with freshly prepared naive (CD45RO negative) T lymphocytes. Allosensitization was assessed by pulsing at day 4 with ^3H-TdR and harvesting 18 hours later.

Row | Molecule | intracellular calcium flux / mobilization [1] | induction of activated myeloid dendritic cell phenotype (CD80 and CD83 expression) ([2]; 20-40 hours, wide dose range, alone or in combination) | costimulatory molecule expression [3] | expression of CD83, ICAM-1, B7.1 and B7.2 [4] | upregulation of CD80, CD86, CD40, HLA-DR, HLA-ABC, ICAM-1 and CD83 as magnitude of that with optimal (750 ng/ml) A23187 ([2]; thapsigargin 750 nM, 24 hours) | CD14 downregulation, effectiveness relative to ionophore ([2]; thapsigargin, 24 hours) | dose giving optimal response ([5]; range 0 to 1000 nM) [nM] | levels of CD80, CD86 and ICAM-1 relative to those observed with ionophore ([5]; thapsigargin 250 nM)
1 | f-MET-LEU-PHE | only a brief calcium flux of much lower magnitude | do not induce monocytes to express the phenotype of activated myeloid dendritic cells; also recorded: does not induce that phenotype | – | – | – | – | – | –
2 | C/C=C(/C)C(=O)O[C@H]1C(C)=C2[C@H]([C@@H]1OC(=O)CCCCCCC)[C@@](C)(OC(C)=O)C[C@H](OC(=O)CCC)[C@@]1(O)[C@H]2OC(=O)[C@@]1(C)O [thapsigargin] | – | – | markedly increased costimulatory molecule expression | uniform de novo expression of CD83, ICAM-1, B7.1, and B7.2 | about 50% | about 75% | 250 | 50-75%
